Laboratory results: ChEMBL document CHEMBL1201862, “PubChem BioAssay data set” (2004)
Active and inactive are the calls of the source.

How the values were obtained:
[1] = inhibitors of intracellular T. cruzi replication, confirmation, NIH3T3 host cells, beta-gal luminescence (AID 2044); type: functional, cell-based;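 also: intracellular parasites grown in NIH/3T3 mouse fibroblasts as host cells; luminescent beta-galactosidase reporter signal from transgenic T. cruzi replicating inside host cells; inhibitors lower the luminescence signal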
[2] = cytotoxicity toward NIH3T3 fibroblasts, dose response, counter-screen, cell-based, ATP luminescence, mouse fibroblasts (AID 2010); type: functional;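 also: cells exposed to compound for about 90 hours before reading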
[3] = biological target: Heat shock protein HSP 90-alpha (Homo sapiens, UniProt P07900); type: functional, organism-based
[4] = biological target: Nuclear receptor subfamily 5 group A member 2 (Homo sapiens, UniProt O00482); type: functional, cell-based;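 also: HEK293T cells transfected with LRH-1 and a StAR promoter luciferase reporter; potency for inhibitors that lower LRH-1 driven reporter light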
Sequence of Nuclear receptor subfamily 5 group A member 2 (O00482 whole entry): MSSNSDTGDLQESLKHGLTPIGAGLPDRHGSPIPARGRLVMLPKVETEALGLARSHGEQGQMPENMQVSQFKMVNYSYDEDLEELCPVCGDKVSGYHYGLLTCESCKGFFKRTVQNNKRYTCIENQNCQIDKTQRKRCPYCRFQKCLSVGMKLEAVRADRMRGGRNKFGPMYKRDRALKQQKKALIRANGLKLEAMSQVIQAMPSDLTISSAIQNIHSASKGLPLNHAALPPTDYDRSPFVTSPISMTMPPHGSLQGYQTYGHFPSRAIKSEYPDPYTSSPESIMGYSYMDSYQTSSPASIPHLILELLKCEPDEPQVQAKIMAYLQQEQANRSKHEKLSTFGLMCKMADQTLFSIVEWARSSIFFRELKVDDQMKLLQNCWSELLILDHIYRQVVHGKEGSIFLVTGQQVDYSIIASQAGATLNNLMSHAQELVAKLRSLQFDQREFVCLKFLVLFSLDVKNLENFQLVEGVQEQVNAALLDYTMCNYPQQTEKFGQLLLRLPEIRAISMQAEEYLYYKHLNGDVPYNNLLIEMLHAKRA

Steroidogenic factor 1 = Steroidogenic factor 1 (Homo sapiens, UniProt Q13285); assay: Counterscreen for inverse agonists of the liver receptor homolog-1 (LRH-1; NR5A2): Luminescence-based cell-based high throughput dose response assay to identify inverse agonists of the Steroidogenic Factor 1 Nuclear Receptor (SF1; NR5A1).; type: functional
Sequence of Steroidogenic factor 1 (Q13285 whole entry): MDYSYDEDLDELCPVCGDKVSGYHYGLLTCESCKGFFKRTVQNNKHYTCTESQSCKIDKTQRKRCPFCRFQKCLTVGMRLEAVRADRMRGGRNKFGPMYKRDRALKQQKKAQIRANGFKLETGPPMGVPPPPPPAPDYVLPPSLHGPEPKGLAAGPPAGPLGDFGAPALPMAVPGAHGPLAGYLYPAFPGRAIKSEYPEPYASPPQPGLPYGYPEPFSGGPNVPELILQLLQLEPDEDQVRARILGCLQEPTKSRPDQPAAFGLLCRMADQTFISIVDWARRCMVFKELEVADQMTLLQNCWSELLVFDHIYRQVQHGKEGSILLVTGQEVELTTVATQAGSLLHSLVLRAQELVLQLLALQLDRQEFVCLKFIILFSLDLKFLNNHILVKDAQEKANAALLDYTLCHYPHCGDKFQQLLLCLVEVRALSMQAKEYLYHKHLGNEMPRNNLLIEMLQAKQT

[5] = StAR promoter reporter inhibition counter-screen, dose response, counter-screen for LRH-1 inverse agonist project, cell-based, luminescence, luciferase reporter (AID 651969); type: functional
Aminopeptidase N = biological target: T1, Aminopeptidase N (Plasmodium falciparum FcB1/Columbia, UniProt O96935); assay: P. falciparum M1AAP inhibitors, biochemical, fluorogenic H-Leu-NHMec substrate, 1536-well (AID 1445); parameters: species or system Plasmodium falciparum 3D7, 3D7
T1 sequence (O96935 whole entry): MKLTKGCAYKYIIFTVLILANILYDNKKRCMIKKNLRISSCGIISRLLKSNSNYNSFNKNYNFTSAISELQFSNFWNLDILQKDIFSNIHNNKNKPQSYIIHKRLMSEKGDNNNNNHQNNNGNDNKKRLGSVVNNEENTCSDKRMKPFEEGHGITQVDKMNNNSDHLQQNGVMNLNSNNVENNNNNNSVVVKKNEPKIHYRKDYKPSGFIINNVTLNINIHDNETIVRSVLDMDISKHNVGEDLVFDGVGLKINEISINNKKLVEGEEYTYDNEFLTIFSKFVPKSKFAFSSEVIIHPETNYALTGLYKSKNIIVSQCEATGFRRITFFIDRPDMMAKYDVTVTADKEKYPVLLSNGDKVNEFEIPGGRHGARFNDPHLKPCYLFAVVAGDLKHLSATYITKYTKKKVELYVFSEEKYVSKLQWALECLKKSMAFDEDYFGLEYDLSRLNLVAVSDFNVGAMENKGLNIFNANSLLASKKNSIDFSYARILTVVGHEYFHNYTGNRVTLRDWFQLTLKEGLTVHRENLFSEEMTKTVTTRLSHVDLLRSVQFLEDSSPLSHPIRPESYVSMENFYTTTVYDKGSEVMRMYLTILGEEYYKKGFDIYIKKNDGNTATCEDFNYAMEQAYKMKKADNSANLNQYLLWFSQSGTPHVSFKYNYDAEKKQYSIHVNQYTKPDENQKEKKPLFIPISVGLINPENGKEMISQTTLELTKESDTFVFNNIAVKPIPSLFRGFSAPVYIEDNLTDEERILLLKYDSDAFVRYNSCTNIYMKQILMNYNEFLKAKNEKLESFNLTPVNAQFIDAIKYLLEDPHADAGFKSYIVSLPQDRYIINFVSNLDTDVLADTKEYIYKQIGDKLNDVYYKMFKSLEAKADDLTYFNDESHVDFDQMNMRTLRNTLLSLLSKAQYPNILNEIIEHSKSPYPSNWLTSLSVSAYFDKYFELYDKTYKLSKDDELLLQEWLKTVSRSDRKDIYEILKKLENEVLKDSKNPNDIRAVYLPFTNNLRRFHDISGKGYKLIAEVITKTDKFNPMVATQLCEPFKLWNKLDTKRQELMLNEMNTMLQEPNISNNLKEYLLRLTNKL

[6] = NIH-3T3 fibroblast cytotoxicity, dose response, cytotoxicity control, cell-based, fluorescence, Alamar Blue, secondary assay (AID 2327); type: functional;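 also: NIH-3T3 mouse fibroblasts cultured with fluconazole at 8 µg/mL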
BJ [7] = assay: cytotoxicity toward BJ-TERT fibroblasts, dose response, cell-based, RAS-independent, luminescence (AID 1933); type: functional; conditions: Homo sapiens
BJ [8] = assay: cells; type: functional, cell-based; conditions: Homo sapiens
[9] = C. albicans growth with fluconazole, confirmation, fluorescence, retest (AID 2467); type: functional, cell-based
BJ [10] = assay: cytotoxicity toward BJ-TERT-LT-ST fibroblasts, dose response, cell-based, RAS-independent, luminescence (AID 1935); type: functional; conditions: Homo sapiens;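 also: BJ fibroblasts immortalized with TERT plus LT and ST oncogenes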
[11] = cytotoxicity toward DRD oncogenic fibroblasts, dose response, cell-based, non-viral oncogenic, luminescence (AID 1934); type: functional; conditions: Homo sapiens
Coagulation factor XII = biological target: T2, Coagulation factor XII (Homo sapiens, UniProt P00748); type: functional;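 also: activated factor XIIa alpha cleaving a fluorogenic AMC peptide substrate; inhibitor potency from loss of enzyme activity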
T2 sequence (P00748 whole entry): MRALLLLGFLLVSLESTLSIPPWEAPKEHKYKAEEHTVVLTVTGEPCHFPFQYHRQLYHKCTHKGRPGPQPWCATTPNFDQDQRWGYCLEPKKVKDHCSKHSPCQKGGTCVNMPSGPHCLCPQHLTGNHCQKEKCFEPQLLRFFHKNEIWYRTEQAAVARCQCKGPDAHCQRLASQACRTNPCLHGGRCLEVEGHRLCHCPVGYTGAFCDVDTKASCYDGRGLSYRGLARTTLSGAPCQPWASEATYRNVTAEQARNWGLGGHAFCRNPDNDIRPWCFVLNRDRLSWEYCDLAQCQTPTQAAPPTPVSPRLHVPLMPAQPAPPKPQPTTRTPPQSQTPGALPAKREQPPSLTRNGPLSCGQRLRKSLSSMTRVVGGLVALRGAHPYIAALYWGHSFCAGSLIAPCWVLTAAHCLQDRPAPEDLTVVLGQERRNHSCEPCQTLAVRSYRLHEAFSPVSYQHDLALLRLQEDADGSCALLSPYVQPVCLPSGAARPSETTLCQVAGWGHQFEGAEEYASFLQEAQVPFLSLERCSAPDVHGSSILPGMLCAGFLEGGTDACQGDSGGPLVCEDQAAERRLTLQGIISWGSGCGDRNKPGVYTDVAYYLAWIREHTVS

Caspase-6 = biological target: T3, Caspase-6 (Homo sapiens, UniProt P55212); assay: human caspase-6 inhibitors, dose response, biochemical, VEID-R110 fluorescence, cherry-pick (AID 720632)
T3 sequence (P55212 whole entry): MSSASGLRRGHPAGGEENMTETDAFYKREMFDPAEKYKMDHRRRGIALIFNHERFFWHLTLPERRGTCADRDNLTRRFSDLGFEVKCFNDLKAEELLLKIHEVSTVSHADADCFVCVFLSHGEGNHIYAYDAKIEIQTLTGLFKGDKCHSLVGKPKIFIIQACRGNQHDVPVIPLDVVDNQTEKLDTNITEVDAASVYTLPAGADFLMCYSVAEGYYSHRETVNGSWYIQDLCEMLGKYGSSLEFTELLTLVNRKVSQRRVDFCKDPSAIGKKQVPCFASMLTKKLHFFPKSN

Protein Tat = biological target: T4, Protein Tat (Human immunodeficiency virus type 1 group M subtype B (isolate HXB2)(HIV-1), UniProt P04608); type: functional;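 also: tat binding to TAR RNA read out by fluorescence polarization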
T4 sequence (P04608 whole entry): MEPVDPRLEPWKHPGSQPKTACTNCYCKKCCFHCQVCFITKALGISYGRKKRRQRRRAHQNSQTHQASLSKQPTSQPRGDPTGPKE

[12] = Shn3 3'UTR reporter inhibitors, dose response, cell-based, Clone20 osteoblasts, firefly luciferase, cherry-picked (AID 624132); type: functional;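 also: firefly luciferase luminescence from reporter carrying the Shn3 3'UTR in osteoblasts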
[13] = HepG2 cell cytotoxicity, dose response, cytotoxicity control for Shn3 inhibitor project, CellTiter-Glo, cherry-picked (AID 624134); type: functional, cell-based
[14] = control 3'UTR Renilla luciferase suppression, dose response, counter-screen for Shn3 inhibitor project, cell-based, Clone20-Shn3RL, cherry-picked (AID 624133); type: functional
[15] = THP-1 cell cytotoxicity, dose response, cytotoxicity control for non-replicating M. tuberculosis project (AID 489025); type: functional
[16] = HepG2 cell cytotoxicity, dose response, cytotoxicity control for non-replicating M. tuberculosis project (AID 489018); type: functional; conditions: Mycobacterium tuberculosis
Paired box protein Pax-8 = Paired box protein Pax-8 (Homo sapiens, UniProt Q06710); assay: inhibitors of PAX8-driven TPO luciferase reporter, dose response, RMG-I cells, cherry-pick (AID 687027); type: functional, cell-based;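 also: luciferase reporter driven by Pax8 target thyroperoxidase promoter measured by SteadyGlo luminescence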
Sequence of Paired box protein Pax-8 (Q06710 whole entry): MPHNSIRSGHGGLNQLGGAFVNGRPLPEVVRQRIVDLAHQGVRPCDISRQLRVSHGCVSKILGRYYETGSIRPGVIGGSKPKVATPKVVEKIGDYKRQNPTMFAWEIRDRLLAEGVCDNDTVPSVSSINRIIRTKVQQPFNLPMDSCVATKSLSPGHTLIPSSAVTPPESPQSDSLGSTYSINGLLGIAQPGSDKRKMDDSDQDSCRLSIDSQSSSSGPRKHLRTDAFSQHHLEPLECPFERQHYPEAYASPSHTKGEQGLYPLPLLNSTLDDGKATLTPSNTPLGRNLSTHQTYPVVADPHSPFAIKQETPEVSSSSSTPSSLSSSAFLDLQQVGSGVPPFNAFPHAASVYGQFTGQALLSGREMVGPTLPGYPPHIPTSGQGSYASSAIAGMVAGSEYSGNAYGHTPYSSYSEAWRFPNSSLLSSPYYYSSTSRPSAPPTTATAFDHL

[17] = biological target: T5, Corticotropin-releasing factor receptor 2/Corticotropin-releasing factor-binding protein (Homo sapiens, UniProt P24387+Q13324); assay: activators of CRF receptor 2 with binding protein – uHTS hits, confirmation (AID 602473); type: functional; conditions: read-out: EC50_Mean
T5 sequence (Q13324 whole entry): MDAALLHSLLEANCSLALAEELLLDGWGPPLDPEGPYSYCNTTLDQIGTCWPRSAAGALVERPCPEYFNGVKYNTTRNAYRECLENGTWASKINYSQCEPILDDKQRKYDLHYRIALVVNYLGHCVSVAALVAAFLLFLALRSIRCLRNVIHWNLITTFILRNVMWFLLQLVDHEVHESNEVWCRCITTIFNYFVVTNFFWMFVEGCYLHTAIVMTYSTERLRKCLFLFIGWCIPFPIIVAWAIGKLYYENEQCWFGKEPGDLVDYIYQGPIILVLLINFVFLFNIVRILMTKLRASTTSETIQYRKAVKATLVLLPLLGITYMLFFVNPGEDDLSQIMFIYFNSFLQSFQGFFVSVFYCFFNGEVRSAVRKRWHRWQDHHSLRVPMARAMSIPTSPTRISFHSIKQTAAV
T5 sequence (P24387 whole entry): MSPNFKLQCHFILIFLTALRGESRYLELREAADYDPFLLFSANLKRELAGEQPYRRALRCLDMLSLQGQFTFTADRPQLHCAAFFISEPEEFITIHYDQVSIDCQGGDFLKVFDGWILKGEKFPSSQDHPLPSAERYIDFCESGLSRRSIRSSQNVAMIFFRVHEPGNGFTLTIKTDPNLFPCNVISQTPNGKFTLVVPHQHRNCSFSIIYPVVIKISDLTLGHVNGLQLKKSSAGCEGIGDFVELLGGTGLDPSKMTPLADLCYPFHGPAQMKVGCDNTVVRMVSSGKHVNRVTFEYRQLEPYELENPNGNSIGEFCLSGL

H9c2 = assay: cells; type: functional, cell-based; conditions: Rattus norvegicus, H9c2, Myocardium;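 also: confirmatory concentration-response retest of ultra-high-throughput screening hits for modulation of myocardial damage; cell death induced by hydrogen peroxide oxidative stress; compound pretreatment for 60 min then peroxide exposure for 2 h; potency is for protecting the cells against peroxide damage rather than for killing them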
[18] = THP-1 cell cytotoxicity, dose response, cytotoxicity control for Vif-APOBEC3G degradation inhibitor project, THP-1 cells (AID 1117359); type: functional; conditions: Human immunodeficiency virus 1, THP-1
Vero = assay: cells; type: functional; conditions: Chlorocebus sabaeus

CCC(C)(C)n1nnnc1C(c1cccnc1)N1CCC(Cc2ccccc2)CC1 (configuration not stated)
EC50 [1]: 0.151 µM (active)
EC50 [2]: 49 µM (active)
AC50 [3]: 1.09 µM (active)

Cc1cc(C)c2nc(NC(=O)c3ccc([N+](=O)[O-])o3)sc2c1
IC50 [4]: 35.9 µM (inactive)
IC50 (Steroidogenic factor 1): 0.148 µM (active)
IC50 [5]: 35.9 µM (inactive)

Nc1nnc(SCC(=O)Nc2ccccc2-c2ccccc2)[nH]1
IC50 (Aminopeptidase N): 51.2 µM (active)

CCOc1ccc(-c2c(C)[n+](-c3ccc(OCC)cc3)c3n2CCCCC3)cc1.[O-][Cl+3]([O-])([O-])[O-]
EC50 [6]: 39.3 µM (active)
EC50 (BJ [7]): 9.44 µM (inconclusive)
EC50 (BJ [8]): 8.54 µM (active)
EC50 [9]: 2.36 µM (active)
EC50 (BJ [10]): 17.1 µM (active)
EC50 [11]: 13.5 µM (inconclusive)
IC50 (Coagulation factor XII): > 50 µM (inactive)

O=C(COC(=O)c1ccc([N+](=O)[O-])o1)NCCc1ccccc1
AC50 (Caspase-6): 42.2 µM (active)

C=CCn1c(CNC(=O)c2ccccc2F)nnc1SCC(=O)NC(C)c1ccccc1 (configuration not stated)
IC50 (Aminopeptidase N): 103 µM (active)

CCOC(=O)c1nn(-c2ccc(Cl)cc2Cl)c(=N)c(C#N)c1C
IC50 (Protein Tat): > 100 µM (active)

NS(=O)(=O)c1ccc(CCNCc2cc(Cl)ccc2OCc2ccccc2)cc1
AC50 [12]: 4.46 µM (active)
AC50 [13]: 46.9 µM (active)
AC50 [14]: 7.31 µM (active)

O=C(NCc1ccco1)c1nn(-c2ccccc2)c(=O)c2ccccc12
IC50 [4]: 35.9 µM (inactive)
IC50 (Steroidogenic factor 1): 3.09 µM (active)
IC50 [5]: 12 µM (inactive)

CN(C)C=O.NS(=O)(=O)c1cccc(NC(=O)CSc2nc(O)c3c(C(F)(F)F)cc(-c4cccs4)nc3n2)c1
IC50 (Aminopeptidase N): 30.5 µM (active)

O=C(NN1C(=O)c2ccccc2NC1c1ccoc1)c1ccccc1 (configuration not stated)
IC50 (Aminopeptidase N): 46.5 µM (active)

COc1ccc2cc(C(=O)NCc3ccccc3CN3CCCC3)ccc2c1
CC50 [15]: > 40 µM (active)
CC50 [16]: > 20 µM (active)

CCCCCCN1C[C@@H](n2cc(-c3ccc(F)cc3)nn2)[C@H](O)C[C@@H]1c1ccc(Cl)cc1
AC50 [12]: 12.5 µM (active)
AC50 [13]: 41.6 µM (active)
AC50 [14]: 21.5 µM (active)
AC50 (Paired box protein Pax-8): 9.71 µM (active)

CC(NC(=O)CN1c2cccc3cccc(c23)S1(=O)=O)c1ccc(S(N)(=O)=O)cc1 (configuration not stated)
AC50 (Caspase-6): 22.4 µM (active)

COCCOC(=O)/C(=C/c1ccc(OC(=O)c2ccccc2)cc1)C(C)=O
AC50 [3]: 3.02 µM (active)
EC50 [17]: > 53 µM (inactive)

Cc1cc(OCC(=O)N2CCC(O)CC2)c2c(C)cc(=O)oc2c1
IC50 [4]: 19 µM (inactive)
IC50 (Steroidogenic factor 1): 11.2 µM (inactive)
IC50 [5]: 35.9 µM (inactive)

O=C(Nc1nc(-c2ccccn2)cs1)c1ccc(-c2ccccc2F)o1
AC50 [3]: 6.54 µM (active)
IC50 (H9c2): > 79 µM (inactive)

CC(C)OC(=O)c1ccc(NCc2cc(O)ccc2O)cc1
AC50 [3]: 25 µM (active)
AC50 [12]: 1.9 µM (active)
AC50 [13]: 7.81 µM (active)
AC50 [14]: 5.28 µM (active)

Cc1cc(C)c2c(O)nc(SCC(=O)Nc3ccc(Br)cc3)nc2n1
IC50 [4]: 28.2 µM (inactive)
IC50 (Steroidogenic factor 1): 33.4 µM (inactive)
IC50 [5]: 35.9 µM (inactive)

CCOC(=O)CC1C(=O)NCCN1c1nc2ccc(C)cn2c(=O)c1/C=C1\SC(=S)N(CC(C)C)C1=O (configuration not stated)
IC50 (Aminopeptidase N): 35.7 µM (active)

CCC(c1nnnn1Cc1ccco1)N(Cc1ccccc1OC)Cc1cc2cc(C)ccc2nc1O (configuration not stated)
IC50 (Protein Tat): > 100 µM (inconclusive)
CC50 [18]: > 40 µM (active)

Cc1ccccc1S(=O)(=O)Nc1ncnc2scc(-c3ccccc3)c12
IC50 (Aminopeptidase N): 24.3 µM (active)

Cc1cccc(N2CCN(S(=O)(=O)c3c(C)noc3/C=C/N(C)C)CC2)c1C
AC50 [3]: 4.74 µM (active)

CCN(CC(=O)NC(C)(C)C)C(=O)CCl
CC50 (Vero): 22.2 µM (active)
